For data set [1], the target named is AChE (Homo sapiens, UniProt P22303). The data set can be described thus: In vitro inhibition of human recombinant AChE (Ellman). It is filed as biochemical. On the set-up: purchased Sigma-Aldrich. The note with it: 15-min incubation at 37 °C. On the procedure: To perform reverse dosimetry of in vitro AChE inhibition by profenofos, first the in vitro AChE activity in the absence or presence of increasing concentrations of profenofos was determined. For humans, commercially available recombinant AChE was used. For rats, no commercially available recombinant AChE was available, so rat AChE was obtained from rat blood as described below.
Sequence of AChE (Homo sapiens, UniProt P22303) (P22303 32-614): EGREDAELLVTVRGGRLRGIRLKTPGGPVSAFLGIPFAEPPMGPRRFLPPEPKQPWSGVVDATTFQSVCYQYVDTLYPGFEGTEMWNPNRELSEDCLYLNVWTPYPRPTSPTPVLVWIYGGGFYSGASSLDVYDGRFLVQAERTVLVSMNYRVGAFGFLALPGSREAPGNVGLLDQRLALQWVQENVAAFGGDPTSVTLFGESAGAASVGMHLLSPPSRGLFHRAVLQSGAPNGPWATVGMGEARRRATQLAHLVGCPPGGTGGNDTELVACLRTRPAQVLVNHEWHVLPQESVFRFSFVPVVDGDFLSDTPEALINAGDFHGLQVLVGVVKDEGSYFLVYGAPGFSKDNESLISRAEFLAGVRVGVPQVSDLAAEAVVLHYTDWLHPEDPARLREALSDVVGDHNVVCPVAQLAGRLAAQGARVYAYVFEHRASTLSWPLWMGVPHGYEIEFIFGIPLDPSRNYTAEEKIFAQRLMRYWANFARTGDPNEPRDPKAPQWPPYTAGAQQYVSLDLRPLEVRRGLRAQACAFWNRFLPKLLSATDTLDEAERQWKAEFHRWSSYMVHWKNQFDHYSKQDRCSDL
AChE inhibition was determined following the protocol of Ellman et al. ([1961]) as modified by Chambers and Chambers ([1989]). The concentration of acetylthiocholine and recombinant AChE were optimized to be linear for metabolite formation (data not shown). Human recombinant AChE was dissolved in 0.1 M sodium phosphate (pH 7.4) containing 1 mg/ml BSA (which was present to stabilize human recombinant AChE (Rosenfeld and Sultatos [2006])) to reach an enzyme concentration of 200 U/ml. Subsequently, the AChE enzyme solution was further diluted with 0.1 M sodium phosphate (pH 7.4) containing 1 mg/ml BSA to a working concentration of 1 U/ml. […] Subsequently, the time-dependent increase in absorbance due to formation of chromophore (DTNB + thiocholine) was measured at 37 °C using a wavelength of 412 nm during a period of 10 min, using a spectrophotometer (SpectraMax, Molecular Devices, UK).
AChE activity was expressed as enzyme activity (percent of control). […]

In data set [2] the test system is brain AChE. Put plainly: In vivo brain AChE inhibition in rats, single exposure (JMPR). The note with it: rat. From the text:
To evaluate the performance of the PBK modeling-facilitated reverse dosimetry approach to predict in vivo AChE inhibition, the predicted dose–response curve for rat AChE inhibition upon exposure to profenofos was compared with available in vivo data on AChE inhibition in rats (JMPR [2007]). Furthermore, the predicted dose–response data were used for BMD modeling, using EFSA PROAST version 69.0 (https://shiny-efsa.openanalytics.eu/app/bmd) using the model averaging approach to allow evaluation of the prediction by comparison of BMDL10 values obtained from the predicted dose–response data to points of departure derived by regulatory bodies (EPA [2016]; JMPR [2007], EFSA [2019]). To that end, the obtained BMDL10 values were compared with a reported BMDL10 value from a rat study on profenofos-induced RBC AChE inhibition, which was recently used to obtain an ARfD by the US EPA (EPA [2016]), and a reported NOAEL value on profenofos-induced rat brain acetylcholinesterase inhibition, which has been used to obtain an ARfD by JMPR ([2007]).

Data set [3] concerns RBC AChE. The settings on record: adult rats, single exposure; ref EPA [2016]; cited from earlier work.
Data set [4] relates to brain AChE. The settings on record: rats, single exposure; ref JMPR [2007]; cited from earlier work.
Data set [5] has as its system AChE. The data set can be described thus: PBK modeling-facilitated reverse dosimetry and BMD modelling of predicted AChE inhibition in humans. More on the design: species or system human. From the text:
In the present study, it was assumed that in vivo dose-dependent AChE inhibition (in blood) depends on the maximum concentration (Cmax) of profenofos reached in the blood. For adequate PBK modeling-facilitated reverse dosimetry, the active (unbound) concentration of a test chemical in the in vitro test system should be linked to the in vivo freely available chemical at the target site. This is important since it is assumed that it is the fraction unbound that causes the effect (AChE inhibition). In the in vitro incubations, a very low concentration of BSA (0.1 mg/mL) is present. Heilmair et al. ([2008]) reported that with such low BSA concentrations, the free concentration of chlorpyrifos oxon is not affected. Furthermore, Rosenfeld and Sultatos ([2006]) found no evidence of binding of paraoxon by BSA even at a higher concentration (1 mg/ml) during incubations. Based on these observations, no significant effect on the free fraction of profenofos in the in vitro AChE inhibition studies is expected, which corroborated with estimations on profenofos binding in the in vitro incubations with help of the online simcyp tool (https://www.certara.com/software/pbpk-modeling-and-simulation/).
By calculating with the PBK model, the external dose required to reach (as unbound Cmax) the concentrations applied in the in vitro test, each in vitro concentration was translated into an in vivo dose. […]

Data on one molecule can be found in PMC8032624, “Prediction of dose-dependent in vivo acetylcholinesterase inhibition by profenofos in rats and humans using physiologically based kinetic (PBK) modeling-facilitated reverse dosimetry” (Archives of Toxicology, 2021).

For `CCCSP(=O)(OCC)Oc1ccc(Br)cc1Cl` (centres unmarked) [profenofos, O-(4-bromo-2-chlorophenyl) O-ethyl S-propyl phosphorothioate], the IC50 in data set [1] came to 0.302 µM. In addition, the “JMPR NOAEL relative to US EPA BMDL10” value in data set [2] is recorded as 50 fold. The “BMDL10 for RBC AChE inhibition” value in data set [3] is 1.99 mg/kg bw. The “NOAEL for inhibition of brain AChE” value in data set [4] is reported as 100 mg/kg bw. In addition, the “Interspecies difference in predicted BMDL10 (rat vs human)” value in data set [5] is 45 fold.
